Test results published in US5739278A, “Compositions for protein tyrosine phosphatases” (University of Washington, priority 1995, dated 1998).
Blank lines part the entries; values can stand above or below the compound they belong to. Where a SMILES comes first, the peptide text is derived from it.

What was measured:
Test in all cases: Phosphatase assay with ENDY(P)INASL as substrate
Type in all cases: biochemical
[1] = molecular target: T1, TCΔC11.PTP (Homo sapiens, UniProt P17706); conditions: for remaining activity at 100 µM: effector 0.1 mM
T1 construct: both the wild type and truncated forms of the T-cell phosphatase; made in house; host or cells: Sf9 cells (baculovirus)
T1 sequence (P17706 1-317 limits assumed): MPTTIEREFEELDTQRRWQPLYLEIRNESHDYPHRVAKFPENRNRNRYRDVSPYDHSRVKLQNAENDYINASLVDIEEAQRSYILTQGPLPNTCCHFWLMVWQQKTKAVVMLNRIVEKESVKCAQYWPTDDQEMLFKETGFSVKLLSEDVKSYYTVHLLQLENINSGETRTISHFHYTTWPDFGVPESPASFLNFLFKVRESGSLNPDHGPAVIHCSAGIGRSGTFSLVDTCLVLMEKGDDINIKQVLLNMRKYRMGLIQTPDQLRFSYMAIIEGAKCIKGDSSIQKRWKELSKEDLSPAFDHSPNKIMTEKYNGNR
Method: (§1) The tyrosine phosphatases TC.PTP, TCΔC11.PTP, and RPTPα were purified from infected Sf9 cells as described recently (Zander et al., Biochemistry 30: 6964-6970, 1991; Daum et al., J. Biol. Chem. 266: 12211-12215, 1991). The 37 kDa form of PTP1B and CD45 were purified from placenta and spleen, respectively (according to Tonks et al., J. Biol. Chem. 263: 6722-6730, 1988; Tonks et al., Biochemistry 27: 8695-8701, 1988).
(§2) Phosphatase assays with ENDY(P)INASL were performed in buffer M6. Aliquots of 30 μl or 60 μl containing the phosphopeptide, the phosphatase (-beads) and effectors were incubated for 10 minutes at 30° C. The reaction was stopped by adding 200 μl of a suspension of 10% activated, acid-washed Norit A charcoal (v/v) in 0.9N HCl, 0.1M pyrophosphate and 2 mM NaH2 PO4 (according to Streuli et al., Proc. Natl. Acad. Sci. USA 86: 8698-8702, 1989). The mixture was cleared by 10-minute centrifugation and the radioactivity of 150 μl of the supernate was determined. Assays with MBP and RCML were performed as described in Tonks et al., J. Biol. Chem. 263: 6722-6730, 1988. Protein concentration was determined with BSA as standard (Bradford, Anal. Biochem. 72: 248-254, 1976).

[2] = molecular target: T2, CD45 (Homo sapiens, UniProt P08575); conditions: for remaining activity at 100 µM: effector 0.1 mM
T2 construct: CD45 were purified from placenta and spleen, respectively; from tissue; host or cells: spleen
T2 sequence (P08575 26-1306): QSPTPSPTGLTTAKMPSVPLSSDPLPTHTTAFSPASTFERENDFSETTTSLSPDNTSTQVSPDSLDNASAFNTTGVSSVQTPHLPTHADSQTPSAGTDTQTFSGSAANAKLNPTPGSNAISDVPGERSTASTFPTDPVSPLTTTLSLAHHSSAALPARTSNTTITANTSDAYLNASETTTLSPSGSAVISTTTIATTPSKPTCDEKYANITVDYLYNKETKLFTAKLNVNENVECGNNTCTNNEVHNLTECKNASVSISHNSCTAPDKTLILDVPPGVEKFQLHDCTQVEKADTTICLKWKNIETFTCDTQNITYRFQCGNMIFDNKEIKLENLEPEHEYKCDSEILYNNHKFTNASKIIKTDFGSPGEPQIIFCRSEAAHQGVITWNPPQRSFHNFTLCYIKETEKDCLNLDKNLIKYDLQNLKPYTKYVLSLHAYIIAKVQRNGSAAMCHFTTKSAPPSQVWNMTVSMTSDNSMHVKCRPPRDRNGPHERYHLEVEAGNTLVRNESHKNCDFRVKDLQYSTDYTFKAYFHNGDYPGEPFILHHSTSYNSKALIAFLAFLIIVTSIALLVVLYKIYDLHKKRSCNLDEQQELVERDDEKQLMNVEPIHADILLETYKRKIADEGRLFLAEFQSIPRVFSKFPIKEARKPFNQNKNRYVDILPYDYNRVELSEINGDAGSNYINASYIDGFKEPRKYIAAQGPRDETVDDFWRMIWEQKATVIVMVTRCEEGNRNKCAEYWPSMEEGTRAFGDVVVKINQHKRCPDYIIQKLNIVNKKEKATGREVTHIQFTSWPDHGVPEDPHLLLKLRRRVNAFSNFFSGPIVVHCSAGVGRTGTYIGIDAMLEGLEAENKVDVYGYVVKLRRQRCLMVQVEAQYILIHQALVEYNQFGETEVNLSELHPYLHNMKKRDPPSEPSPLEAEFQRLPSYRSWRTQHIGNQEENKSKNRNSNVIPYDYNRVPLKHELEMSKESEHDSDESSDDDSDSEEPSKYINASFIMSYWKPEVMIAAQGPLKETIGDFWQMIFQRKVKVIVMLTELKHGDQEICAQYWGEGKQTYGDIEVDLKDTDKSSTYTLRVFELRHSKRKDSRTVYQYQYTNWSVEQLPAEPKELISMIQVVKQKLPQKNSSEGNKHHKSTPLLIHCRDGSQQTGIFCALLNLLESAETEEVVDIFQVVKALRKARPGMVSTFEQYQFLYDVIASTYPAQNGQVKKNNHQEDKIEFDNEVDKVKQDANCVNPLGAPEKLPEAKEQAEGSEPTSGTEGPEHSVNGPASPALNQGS
Method: as §1, §2

[3] = molecular target: T3, PTP1B (Homo sapiens, UniProt P18031)
T3 construct: The 37 kDa form of PTP1B; from tissue; host or cells: placenta
T3 sequence (P18031 1-321 limits assumed): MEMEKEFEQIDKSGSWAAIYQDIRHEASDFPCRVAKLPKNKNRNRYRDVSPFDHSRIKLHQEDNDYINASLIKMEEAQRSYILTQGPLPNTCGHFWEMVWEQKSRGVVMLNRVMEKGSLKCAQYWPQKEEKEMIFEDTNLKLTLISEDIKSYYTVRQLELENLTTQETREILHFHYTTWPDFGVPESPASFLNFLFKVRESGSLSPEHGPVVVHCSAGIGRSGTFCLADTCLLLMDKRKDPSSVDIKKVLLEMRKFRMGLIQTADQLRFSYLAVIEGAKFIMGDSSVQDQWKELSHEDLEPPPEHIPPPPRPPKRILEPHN
Method: as §1, §2

[4] = molecular target: T4, TC.PTP (Homo sapiens, UniProt P17706); conditions: TC.PTP; for remaining activity at 100 µM: effector 0.1 mM
T4 construct: made in house; host or cells: Sf9 cells (baculovirus)
T4 sequence (P17706 1-415): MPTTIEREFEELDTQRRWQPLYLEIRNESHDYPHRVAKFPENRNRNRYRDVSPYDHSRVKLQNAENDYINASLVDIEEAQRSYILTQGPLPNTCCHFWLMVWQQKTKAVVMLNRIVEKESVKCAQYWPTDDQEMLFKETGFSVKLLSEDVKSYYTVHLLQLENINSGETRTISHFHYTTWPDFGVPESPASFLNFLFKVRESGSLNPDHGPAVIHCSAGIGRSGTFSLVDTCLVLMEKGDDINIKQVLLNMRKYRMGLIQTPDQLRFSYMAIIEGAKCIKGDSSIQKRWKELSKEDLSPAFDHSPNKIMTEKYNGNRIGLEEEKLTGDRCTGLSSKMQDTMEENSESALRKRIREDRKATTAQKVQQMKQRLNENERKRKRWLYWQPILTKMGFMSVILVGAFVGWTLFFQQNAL
Method: as §1, §2

[5] = molecular target: T5, RPTPα (Homo sapiens, UniProt P18433); conditions: for remaining activity at 100 µM: effector 0.1 mM
T5 construct: made in house; host or cells: Sf9 cells (baculovirus)
T5 sequence (P18433 20-802): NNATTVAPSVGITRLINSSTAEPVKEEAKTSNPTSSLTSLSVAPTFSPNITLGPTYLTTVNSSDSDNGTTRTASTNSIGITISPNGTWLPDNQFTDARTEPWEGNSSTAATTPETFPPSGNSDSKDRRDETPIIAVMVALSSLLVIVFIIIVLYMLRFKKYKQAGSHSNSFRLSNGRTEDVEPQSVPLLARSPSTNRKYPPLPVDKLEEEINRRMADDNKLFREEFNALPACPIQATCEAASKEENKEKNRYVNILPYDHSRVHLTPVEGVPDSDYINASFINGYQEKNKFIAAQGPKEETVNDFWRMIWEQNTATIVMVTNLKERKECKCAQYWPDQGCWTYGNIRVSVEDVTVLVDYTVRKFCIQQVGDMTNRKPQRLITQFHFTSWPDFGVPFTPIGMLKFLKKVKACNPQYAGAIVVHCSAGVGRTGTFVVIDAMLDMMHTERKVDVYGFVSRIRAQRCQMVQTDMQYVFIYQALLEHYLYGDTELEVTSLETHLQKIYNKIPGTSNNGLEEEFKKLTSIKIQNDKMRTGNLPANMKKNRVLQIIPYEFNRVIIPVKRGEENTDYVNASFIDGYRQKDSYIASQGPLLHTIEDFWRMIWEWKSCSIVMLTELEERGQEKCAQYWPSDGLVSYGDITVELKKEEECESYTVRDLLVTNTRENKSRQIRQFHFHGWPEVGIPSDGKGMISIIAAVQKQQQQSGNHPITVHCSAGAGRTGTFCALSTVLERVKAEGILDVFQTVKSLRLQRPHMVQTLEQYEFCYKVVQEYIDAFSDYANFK
Method: as §1, §2

[6] = 10 min, read-out: Phosphatase activity in percent of the value obtained in the absence of effectors
[7] = 10 min, effector 2.0 mM, read-out: Phosphatase activity in percent of the value obtained in the absence of effectors
[8] = 10 min, effector 5.0 mM, read-out: Phosphatase activity in percent of the value obtained in the absence of effectors
[9] = 10 min, effector 0.5 mM, read-out: Phosphatase activity in percent of the value obtained in the absence of effectors
[10] = 10 min, effector 1.0 mM, read-out: Phosphatase activity in percent of the value obtained in the absence of effectors

remaining activity at 100 µM [1, 6]: 67%
remaining activity at 2000 µM [1, 7]: 65%
remaining activity at 5000 µM [1, 8]: 66%
remaining activity at 100 µM [2, 6]: 103%
remaining activity at 2000 µM [2, 7]: 92%
remaining activity at 5000 µM [2, 8]: 83%
Phosphatase activity in percent of the value obtained in the absence of effectors ([3]; effector 0.1 mM): 89%
Phosphatase activity in percent of the value obtained in the absence of effectors ([3]; effector 2.0 mM): 94%
Phosphatase activity in percent of the value obtained in the absence of effectors ([3]; effector 5.0 mM): 92%
remaining activity at 100 µM [4, 6]: 92%
remaining activity at 2000 µM [4, 7]: 88%
remaining activity at 5000 µM [4, 8]: 91%
remaining activity at 100 µM [5, 6]: 72%
remaining activity at 2000 µM [5, 7]: 60%
remaining activity at 5000 µM [5, 8]: 34%
Compound: NCCCCNCCCN [spermidine]

Compound: CC[C@H](C)[C@H](NC(=O)[C@H](Cc1ccc(O)cc1)NC(=O)[C@H](CC(=O)O)NC(=O)[C@H](CC(N)=O)NC(=O)[C@@H](N)CCC(=O)O)C(=O)N[C@@H](CC(N)=O)C(=O)N[C@@H](C)C(=O)N[C@@H](CO)C(=O)N[C@@H](CC(C)C)C(=O)O (H-ENDYINASL-OH)
Phosphatase activity in percent of the value obtained in the absence of effectors ([1]; effector 60 μM): 71%
Phosphatase activity in percent of the value obtained in the absence of effectors ([1]; effector 110 μM): 55%
Phosphatase activity in percent of the value obtained in the absence of effectors ([1]; effector 210 μM): 46%
Phosphatase activity in percent of the value obtained in the absence of effectors ([2]; effector 60 μM): 99%
Phosphatase activity in percent of the value obtained in the absence of effectors ([2]; effector 110 μM): 92%
Phosphatase activity in percent of the value obtained in the absence of effectors ([2]; effector 210 μM): 83%
Phosphatase activity in percent of the value obtained in the absence of effectors ([3]; effector 60 μM): 94%
Phosphatase activity in percent of the value obtained in the absence of effectors ([3]; effector 110 μM): 84%
Phosphatase activity in percent of the value obtained in the absence of effectors ([3]; effector 210 μM): 58%
Phosphatase activity in percent of the value obtained in the absence of effectors ([4]; effector 60 μM): 92%
Phosphatase activity in percent of the value obtained in the absence of effectors ([4]; effector 110 μM): 89%
Phosphatase activity in percent of the value obtained in the absence of effectors ([4]; effector 210 μM): 79%
Phosphatase activity in percent of the value obtained in the absence of effectors ([5]; effector 60 μM): 76%
Phosphatase activity in percent of the value obtained in the absence of effectors ([5]; effector 110 μM): 54%
Phosphatase activity in percent of the value obtained in the absence of effectors ([5]; effector 210 μM): 30%

remaining activity at 100 µM [1, 6]: 81%
remaining activity at 500 µM [1, 9]: 60%
remaining activity at 1000 µM [1, 10]: 55%
remaining activity at 100 µM [2, 6]: 117%
remaining activity at 500 µM [2, 9]: 100%
remaining activity at 1000 µM [2, 10]: 85%
Phosphatase activity in percent of the value obtained in the absence of effectors ([3]; effector 0.1 mM): 87%
Phosphatase activity in percent of the value obtained in the absence of effectors ([3]; effector 0.5 mM): 89%
Phosphatase activity in percent of the value obtained in the absence of effectors ([3]; effector 1.0 mM): 82%
remaining activity at 100 µM [4, 6]: 119%
remaining activity at 500 µM [4, 9]: 109%
remaining activity at 1000 µM [4, 10]: 82%
remaining activity at 100 µM [5, 6]: 89%
remaining activity at 500 µM [5, 9]: 57%
remaining activity at 1000 µM [5, 10]: 41%
Compound: NCCCNCCCCNCCCN [spermine]

Phosphatase activity in percent of the value obtained in the absence of effectors ([1]; effector 1.0 mM): 34%
Phosphatase activity in percent of the value obtained in the absence of effectors ([1]; effector 3.0 mM): 22%
Phosphatase activity in percent of the value obtained in the absence of effectors ([1]; effector 5.0 mM): 15%
Phosphatase activity in percent of the value obtained in the absence of effectors ([2]; effector 1.0 mM): 78%
Phosphatase activity in percent of the value obtained in the absence of effectors ([2]; effector 3.0 mM): 56%
Phosphatase activity in percent of the value obtained in the absence of effectors ([2]; effector 5.0 mM): 44%
Phosphatase activity in percent of the value obtained in the absence of effectors ([3]; effector 1.0 mM): 26%
Phosphatase activity in percent of the value obtained in the absence of effectors ([3]; effector 3.0 mM): 23%
Phosphatase activity in percent of the value obtained in the absence of effectors ([3]; effector 5.0 mM): 20%
Phosphatase activity in percent of the value obtained in the absence of effectors ([4]; effector 1.0 mM): 49%
Phosphatase activity in percent of the value obtained in the absence of effectors ([4]; effector 3.0 mM): 30%
Phosphatase activity in percent of the value obtained in the absence of effectors ([4]; effector 5.0 mM): 21%
Phosphatase activity in percent of the value obtained in the absence of effectors ([5]; effector 1.0 mM): 60%
Phosphatase activity in percent of the value obtained in the absence of effectors ([5]; effector 3.0 mM): 38%
Phosphatase activity in percent of the value obtained in the absence of effectors ([5]; effector 5.0 mM): 21%
Compound: [Mn+2] [Mn^2+]
